Biological target: Hsp27c (Homo sapiens, UniProt P04792)
Assay: STD-NMR binding experiment
Conditions: Figure S2

Hsp27c, sequence (P04792 79-176): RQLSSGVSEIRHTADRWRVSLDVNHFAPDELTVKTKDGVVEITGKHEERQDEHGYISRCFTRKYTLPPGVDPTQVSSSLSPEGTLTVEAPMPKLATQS

Q: Which “binding to Hsp27c in STD-NMR” value does the source give for Nc1cccnc1Oc1ccc(F)cc1F [Compound 4, 2-(2,4-difluorophenoxy)pyridin-3-amine] here?
A: bound

— article PMC7968374 (Bioorganic & medicinal chemistry, 2021)
